Results as given in patent US10035806B2, “Derivatized corroles and metallocorroles and their use as imaging and therapeutic agents” (CALIFORNIA INSTITUTE OF TECHNOLOGY, priority 2015, dated 2018).
Marks after values point to notes of the source that are not given here.

Key:
Type in all cases: cell-based, human
[1] = system: DU-145, SK-MEL-28, MDA-MB-231, OVCAR-3; assay: Uptake of gallium corroles (ImageXpress confocal), cell lines taken together; conditions: 30 μM, 37° C., dark
Protocol: The intracellular uptake of gallium corroles was quantified using the ImageXpressultra laser point-scanning confocal microscope (Molecular Devices). The fluorescence image acquisition settings were as previously reported (Lim P, et al. (2012), Chem Res Toxicol 25(2):400-409.). Cells (DU-145, SK-MEL-28, MDA-MB-231, and OVCAR-3) were seeded in 96-well dishes (8×10^3 cells per well in 0.1 mL) and allowed to attach overnight. Complex 1, 2, 3, or 4 was added directly to cell media at 30 μM final concentration or media only control, and incubated for 0.25, 1, 3, or 24 h at 37° C. in the dark under a 5% CO2 atmosphere. Cells were fixed and labeled in situ with WGA-Alexa Fluor 488 conjugate and DAPI to allow for the identification of cell boundary and nucleus, respectively. The quantification of blue (DAPI) fluorescence signals in each sample yielded the total number of cells in that population. Corresponding determination of red (corrole) fluorescence within each cell, corrected for background fluorescence from untreated cells, provided the number of cells containing corroles. For each corrole concentration at various time points, fluorescence data were obtained for 1,000-22,000 individual cells. Data acquisitions and analyses were performed as described (Lim P, et al. (2012), Chem Res Toxicol 25(2):400-409). The percentage of corrole-positive cells and the median fluorescence intensity (median RFU) for each treatment were plotted in a three-axis graph using Microsoft Office Excel 2007 (Microsoft Corporation).
To quantify the kinetics of intracellular uptake and accumulation of each derivative, ImageXpressultra, a laser point-scanning confocal microscope, was used for analyses. […] Cells were incubated at 37° C. in the dark for 0.25, 1, 3, or 24 h. […] Within 15 min, Complex 4 fluorescence was observable in ˜80% of ovarian cancer cells, 97% of breast cancer cells, and >99% of prostate cancer and melanoma cells, whereas up to 3 and 24 h were required to label >80% of cells from all four cancer lines with Complexes 3 and 2, respectively. […]

[2] = system: LOX IMVI; assay: NCI60 anticancer drug screen; conditions: LOX IMVI (Melanoma), 10 μM, 48 h; lethality rather than inhibition
[3] = system: DU-145, SK-MEL-28, MDA-MB-231, OVCAR-3; assay: MTS assay, all four cell lines taken together; conditions: Table 1 comparison, 72 h
Description: Reagents were obtained from the indicated suppliers: HBSS without phenol red and trypsin-EDTA (0.25%), Invitrogen/Gibco; PBS, Mediatech; 4′,6-diamidino-2-phenylindole dihydrochloride (DAPI) and DMSO, Sigma-Aldrich; paraformaldehyde, Electron Microscopy Sciences; WGA, Alexa Fluor 488 conjugate, Invitrogen/Molecular Probes; and ProLong Gold Antifade Mountant with DAPI, Life Technologies. Human Cancer Cell Lines. Four cell lines from the NCI60 cell panel (Shoemaker RH (2006) The NCI60 human tumour cell line anticancer drug screen. Nat Rev Cancer 6(10):813-823) representing four distinct tumor types were used in this study: DU-145, prostate; MDA-MB-231, breast; SK-MEL-28, melanoma; and OVCAR-3, ovarian. […]
At the time of drug treatment, stock solutions of 1-4 were diluted to 10-fold the desired final test concentrations with RPMI medium 1640. […] Following 72 h of exposure at 37° C., cell viability was determined using the MTS assay (CellTiter 96 Aqueous One Cell Proliferation Assay; Promega) according to the manufacturer's instructions. Absorbances were measured using a microplate reader (Synergy 4; Biotek Instruments) at 490 nm. […] Spectrophotometric data were analyzed by sigmoid dose-response, nonlinear regression analysis; the IC50, Emax values, and associated SE were calculated using GraphPad Prism 6 (GraphPad Software). […]

O=C(O)CCCCCNc1c(F)c(F)c(C2=C3C=CC4=[N+]3[Ga-]35[n]6c2ccc6C(c2c(F)c(F)c(F)c(F)c2F)=c2ccc([n]23)=C(c2c(F)c(F)c(F)c(F)c2F)c2ccc4[n]25)c(F)c1F (stereo not drawn) [Complex 3] was tested, and the “time required to label >80% of cells from all four cancer lines” value [1] was “up to 3 h”, the “% lethality” value [2] was 9.7** % and the “IC50 lower than Complex 2” value [3] was 10 fold.
